Earlier results as cited in paper PMC9228535, “Antistaphylococcal Activities and ADME-Related Properties of Chlorinated Arylcarbamoylnaphthalenylcarbamates” (Pharmaceuticals, 2022).
Values after ≈ are worked out from the molar mass of the structure shown.

Tested on: MRSA 63718
Set-up: method as in PMID 25692135
Conditions: cited from earlier work

CN[C@H](CC(C)C)C(=O)N[C@H]1C(=O)N[C@@H](CC(N)=O)C(=O)N[C@H]2C(=O)N[C@H]3C(=O)N[C@H](C(=O)N[C@H](C(=O)O)c4cc(O)cc(O)c4-c4cc3ccc4O)[C@H](O)c3ccc(c(Cl)c3)Oc3cc2cc(c3O[C@@H]2O[C@H](CO)[C@@H](O)[C@H](O)[C@H]2O[C@H]2C[C@](C)(N)[C@H](O)[C@H](C)O2)Oc2ccc(cc2Cl)[C@H]1O [vancomycin]
MIC: 2 µg/mL (≈ 1.38 µM)
